For orientation: IC50 means the concentration that gives 50% inhibition.

Assay [1] has as its target T1, Amine oxidase [flavin-containing] B (Rattus norvegicus, UniProt P19643).
T1 sequence (P19643 whole entry): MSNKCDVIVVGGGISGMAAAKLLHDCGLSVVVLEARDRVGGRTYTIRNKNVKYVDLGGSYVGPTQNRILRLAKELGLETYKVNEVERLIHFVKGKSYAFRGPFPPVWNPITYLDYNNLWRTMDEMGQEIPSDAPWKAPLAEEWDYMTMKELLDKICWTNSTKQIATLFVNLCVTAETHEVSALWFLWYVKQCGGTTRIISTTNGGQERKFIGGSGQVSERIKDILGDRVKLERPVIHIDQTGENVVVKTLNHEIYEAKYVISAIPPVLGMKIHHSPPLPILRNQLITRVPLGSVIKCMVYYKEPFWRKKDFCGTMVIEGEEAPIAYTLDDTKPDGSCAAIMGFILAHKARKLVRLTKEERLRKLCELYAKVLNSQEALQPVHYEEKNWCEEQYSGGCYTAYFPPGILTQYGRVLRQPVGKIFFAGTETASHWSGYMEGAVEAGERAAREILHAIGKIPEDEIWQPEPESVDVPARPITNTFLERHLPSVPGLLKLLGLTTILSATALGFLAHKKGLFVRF
The assay is classed as mitochondria, Sprague-Dawley, Mitochondria.
Description: Inhibition of Sprague-Dawley rat brain mitochondria MAOB by continuous spectrophotometric assay

Assay [2] addresses T2, Amine oxidase [flavin-containing] A (Rattus norvegicus, UniProt P21396).
T2 sequence (P21396 whole entry): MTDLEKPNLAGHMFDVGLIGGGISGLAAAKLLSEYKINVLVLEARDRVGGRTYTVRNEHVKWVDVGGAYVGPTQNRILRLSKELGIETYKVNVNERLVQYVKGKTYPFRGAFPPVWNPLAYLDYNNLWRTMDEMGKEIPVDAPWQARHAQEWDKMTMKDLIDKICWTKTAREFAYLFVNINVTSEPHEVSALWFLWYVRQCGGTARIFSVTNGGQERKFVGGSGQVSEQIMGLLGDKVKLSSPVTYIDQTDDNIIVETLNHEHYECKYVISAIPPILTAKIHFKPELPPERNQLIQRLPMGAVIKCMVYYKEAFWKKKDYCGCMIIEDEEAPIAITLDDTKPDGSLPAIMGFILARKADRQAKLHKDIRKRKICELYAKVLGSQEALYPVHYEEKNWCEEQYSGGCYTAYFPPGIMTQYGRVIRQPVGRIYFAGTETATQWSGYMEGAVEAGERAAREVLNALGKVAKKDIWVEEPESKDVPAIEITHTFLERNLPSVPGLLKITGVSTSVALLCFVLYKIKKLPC
The class given is mitochondria, Sprague-Dawley, Mitochondria.
Description: Inhibition of Sprague-Dawley rat brain mitochondria MAOA by continuous spectrophotometric assay

Turning to `Cc1c(C)c2ccc(SCc3ccccc3)cc2oc1=O`, the IC50 in assay [1] was 39.8 nM; in assay [2], 10000 nM. For `Cc1c(C)c2ccc(S(=O)(=O)Cc3ccccc3)cc2oc1=O` the same measures were 2750 nM and 18600 nM. On to `Cc1cc2ccc(OCc3cccc(Cl)c3)cc2oc1=O`, for which the IC50 in assay [1] was 5.13 nM; in assay [2], 12600 nM. `O=C(OCc1ccc2ccc(=O)oc2c1)c1ccccc1`: the IC50 in assay [1] was 2400 nM; in assay [2], 9550 nM. For `Cc1c(C)c2ccc(CCc3ccccc3)cc2oc1=O` the same measures were 457 nM and 7080 nM. The matching figures for `Cc1c(C)c2ccc(OC[C@@H](O)c3ccccc3)cc2oc1=O`: 28.2 nM and 10000 nM. The matching figures for `Cc1c(C)c2ccc(OCS(=O)(=O)c3ccccc3)cc2oc1=O`: 871 nM and 2820 nM.

Consider `Cc1ccc(S(=O)(=O)N(C)c2ccc3c(C)c(C)c(=O)oc3c2)cc1`, for which, in assay [2], it took 4570 nM to reach half-maximal inhibition (IC50). On to `Cc1c(C)c2ccc(OCCOc3ccccc3)cc2oc1=O`, for which the figures for the IC50 in assay [1] and in assay [2] were 26.9 nM and 10200 nM, respectively. For `Cc1c(C)c2ccc(OC[C@H](O)c3ccccc3)cc2oc1=O` the same measures were 302 nM and 3240 nM.

For the molecule `Cc1c(C)c2ccc(Oc3ccccc3)cc2oc1=O`, the IC50 in assay [1] is 3240 nM. On the same count and under the same terms, the same measure for `Cc1c(C)c2ccc(OC/C=C/c3ccccc3)cc2oc1=O`: 112 nM. Regarding `Cc1c(C)c2ccc(OCC(O)c3ccccc3)cc2oc1=O` (racemic), the IC50 is 70.8 nM in assay [1] and 10000 nM in assay [2]. On to `Cc1cc2ccc(OCc3ccccc3)cc2oc1=O`, for which the IC50 in assay [1] was 6.61 nM; in assay [2] it was 5500 nM.

The record behind these values is ChEMBL document CHEMBL1145327, “Structural insights into monoamine oxidase inhibitory potency and selectivity of 7-substituted coumarins from ligand- and target-based approaches” (J Med Chem, 2006).
